Measured values as given in US20230310464A1, “USE OF C[…] THE TREATMENT OF SEIZURES ASSOCIATED WITH RARE […] SYNDROMES RELATED TO BRAIN INJURY” (GW Research Limited, priority 2020, published 2023).
Entries after “also recorded” stand apart in the source; their conditions may differ.

Tested on: seizures associated with hypoxic ischaemic encephalopathy (HIE) or anoxia at birth
Test: Open label, expanded-access program: seizure frequency recorded by caregivers in a diary, relative to baseline
Format: in vivo, human
Set-up: reduction in tonic seizures over the treatment period / reduction in spasms over the treatment period / reduction in absence seizures over the treatment period / reduction in tonic-clonic seizures over the treatment period / reduction in myoclonic seizures over the treatment period: concentration or dose not given beside the values; Seizure frequency, Tonic / Seizure frequency, Spasm / Seizure frequency, Absence / Seizure frequency, Tonic-clonic / Seizure frequency, Focal with impairment / Seizure frequency, Atonic / Seizure frequency, Focal without impairment / Seizure frequency, Focal secondary generalisation / Seizure frequency, Myoclonic: unit not given here
Method: Subjects were required to be on one or more AEDs at stable doses for a minimum of two weeks prior to baseline and to have stable vagus nerve stimulation (VNS) settings and ketogenic diet ratios for a minimum of four weeks prior to baseline.
Dose was then increased weekly by 5 mg/kg/day to a goal of 20 to 25 mg/kg/day.
Modifications were made to concomitant AEDs as per clinical indication.
Seizure frequency, intensity, and duration were recorded by caregivers in a diary during a baseline period of at least 28 days. Changes in seizure frequency relative to baseline were calculated after at least 2 weeks and at defined timepoints of treatment.
Patients may be defined as responders if they had more than 50% reduction in seizure frequency compared to baseline. The percent change in seizure frequency was calculated as follows: […]
The percent change of seizure frequency may be calculated for any time interval where seizure number has been recorded. For the purpose of this example the percent change of seizure frequency for the end of the treatment period was calculated as follows: […]

[1] = Patient 4, 48 weeks, CBD 15.0 mg/kg/day
[2] = Patient 4, 60 weeks, CBD 20.0 mg/kg/day
[3] = Patient 4, treated for 60 weeks, vs baseline
[4] = Patient 5, 2 weeks, CBD 10.0 mg/kg/day
[5] = Patient 5, 4 weeks, CBD 20.0 mg/kg/day
[6] = Patient 5, 8 weeks, CBD 25.0 mg/kg/day
[7] = Patient 5, 12 weeks, CBD 25.0 mg/kg/day
[8] = Patient 5, 16 weeks, CBD 25.0 mg/kg/day
[9] = Patient 6, 2 weeks, CBD 10.0 mg/kg/day
[10] = Patient 6, treated for 2 weeks, vs baseline
[11] = Patient 7, 2 weeks, CBD 5.0 mg/kg/day
[12] = Patient 7, 4 weeks, CBD 10.0 mg/kg/day
[13] = Patient 7, 8 weeks, CBD 20.0 mg/kg/day
[14] = Patient 7, 12 weeks, CBD 25.0 mg/kg/day
[15] = Patient 9, 2 weeks, CBD 15.0 mg/kg/day
[16] = Patient 9, 4 weeks, CBD 20.0 mg/kg/day
[17] = Patient 9, 8 weeks, CBD 25.0 mg/kg/day
[18] = Patient 9, 12 weeks, CBD 25.0 mg/kg/day
[19] = Patient 9, 16 weeks, CBD 25.0 mg/kg/day
[20] = Patient 9, 24 weeks, CBD 25.0 mg/kg/day
[21] = Patient 9, 36 weeks, CBD 25.0 mg/kg/day
[22] = Patient 9, 48 weeks, CBD 25.0 mg/kg/day
[23] = Patient 9, 60 weeks, CBD 25.0 mg/kg/day
[24] = Patient 9, 72 weeks, CBD 25.0 mg/kg/day
[25] = Patient 9, 84 weeks, CBD 25.0 mg/kg/day
[26] = Patient 9, 108 weeks, CBD 25.0 mg/kg/day
[27] = Patient 9, 132 weeks, CBD 25.0 mg/kg/day

Compound: C=C(C)[C@@H]1CCC(C)=C[C@H]1c1c(O)cc(CCCCC)cc1O [CBD, cannabidiol]
- Seizure frequency, Tonic-clonic (Patient 4, 36 weeks, CBD 15.0 mg/kg/day): 0
- Seizure frequency, Atonic [1]: 0
- Seizure frequency, Tonic [1]: 0
- Seizure frequency, Tonic-clonic [1]: 3.3
- Seizure frequency, Atonic [2]: 4.0
- Seizure frequency, Tonic [2]: 0
- Seizure frequency, Tonic-clonic [2]: 19.3
- reduction in tonic seizures over the treatment period [3]: 100%
- reduction in tonic-clonic seizures over the treatment period [3]: 87.1%
- Seizure frequency, Focal secondary generalisation [4]: 114.0
- Seizure frequency, Focal without impairment [4]: 0
- Seizure frequency, Focal secondary generalisation [5]: 106.0
- Seizure frequency, Focal without impairment [5]: 2.0
- Seizure frequency, Focal secondary generalisation [6]: 112.8
- Seizure frequency, Focal without impairment [6]: 1.9
- Seizure frequency, Focal secondary generalisation [7]: 111.0
- Seizure frequency, Focal without impairment [7]: 2.1
- Seizure frequency, Focal secondary generalisation [8]: 125.5
- Seizure frequency, Focal without impairment [8]: 3.9
- reduction in seizures over the treatment period (in words) (Patient 5, treated for 16 weeks): did not experience a reduction in seizures
- Seizure frequency, Spasm [9]: 100.0
- Seizure frequency, Tonic-clonic [9]: 10.0
- reduction in spasms over the treatment period [10]: 53.9%
- reduction in tonic-clonic seizures over the treatment period [10]: 28.6%
- Seizure frequency, Focal with impairment [11]: 70.0
- Seizure frequency, Myoclonic [11]: 58.0
- Seizure frequency, Tonic-clonic [11]: 74.0
- Seizure frequency, Focal with impairment [12]: 78.0
- Seizure frequency, Myoclonic [12]: 18.0
- Seizure frequency, Tonic-clonic [12]: 102.0
- Seizure frequency, Focal with impairment [13]: 65.3
- Seizure frequency, Myoclonic [13]: 65.3
- Seizure frequency, Tonic-clonic [13]: 86.7
- Seizure frequency, Focal with impairment [14]: 71.0
- Seizure frequency, Myoclonic [14]: 7.0
- Seizure frequency, Tonic-clonic [14]: 65.0
- reduction in myoclonic seizures over the treatment period (Patient 7, treated for 12 weeks, vs baseline): 30%
- Seizure frequency, Absence (Patient 8, 4 weeks, CBD 5.0 mg/kg/day): 5376.0
- Seizure frequency, Absence (Patient 8, 8 weeks, CBD 5.0 mg/kg/day): 4803.0
- Seizure frequency, Absence (Patient 8, 12 weeks, CBD 10.0 mg/kg/day): 3514.0
- Seizure frequency, Absence (Patient 8, 24 weeks, CBD 15.0 mg/kg/day): 4284.0
- Seizure frequency, Absence (Patient 8, 36 weeks, CBD 20.0 mg/kg/day): 2989.3
- Seizure frequency, Absence (Patient 8, 48 weeks, CBD 25.0 mg/kg/day): 3360.0
- Seizure frequency, Absence (Patient 8, 60 weeks, CBD 25.0 mg/kg/day): 3136.0
- Seizure frequency, Absence (Patient 8, 72 weeks, CBD 25.0 mg/kg/day): 2968.0
- Seizure frequency, Absence (Patient 8, 84 weeks, CBD 25.0 mg/kg/day): 2718.0
- reduction in absence seizures over the treatment period (Patient 8, treated for 84 weeks, vs baseline): 64%
- Seizure frequency, Myoclonic [15]: 2.0
- Seizure frequency, Tonic [15]: 118.0
- Seizure frequency, Myoclonic [16]: 1.0
- Seizure frequency, Tonic [16]: 88.0
- Seizure frequency, Myoclonic [17]: 0
- Seizure frequency, Tonic [17]: 48.0
- Seizure frequency, Myoclonic [18]: 0
- Seizure frequency, Tonic [18]: 92.0
- Seizure frequency, Myoclonic [19]: 0
- Seizure frequency, Tonic [19]: 90.0
- Seizure frequency, Myoclonic [20]: 0
- Seizure frequency, Tonic [20]: 142.4
- Seizure frequency, Myoclonic [21]: 0
- Seizure frequency, Tonic [21]: 53.0
- Seizure frequency, Myoclonic [22]: 0
- Seizure frequency, Tonic [22]: 98.0
- Seizure frequency, Myoclonic [23]: 0
- Seizure frequency, Tonic [23]: 95.6
- Seizure frequency, Myoclonic [24]: 0
- Seizure frequency, Tonic [24]: 96.0
- Seizure frequency, Myoclonic [25]: 0
- Seizure frequency, Tonic [25]: 99.2
- Seizure frequency, Myoclonic [26]: 0
- Seizure frequency, Tonic [26]: 69.0
- Seizure frequency, Myoclonic [27]: 0
- Seizure frequency, Tonic [27]: 76.8
- Seizure frequency, Absence (Patient 10, 4 weeks, CBD 5.0 mg/kg/day): 10.0
- Seizure frequency, Absence (Patient 10, 12 weeks, CBD 10.0 mg/kg/day): 610.0
- Seizure frequency, Absence (Patient 10, 24 weeks, CBD 15.0 mg/kg/day): 304.0
- Seizure frequency, Absence (Patient 10, 36 weeks, CBD 20.0 mg/kg/day): 2184.6
- Seizure frequency, Absence (Patient 10, 48 weeks, CBD 25.0 mg/kg/day): 1957.3
- Seizure frequency, Absence (Patient 10, 60 weeks, CBD 25.0 mg/kg/day): 1520.3
- Seizure frequency, Absence (Patient 10, 72 weeks, CBD 25.0 mg/kg/day): 1655.6
- Seizure frequency, Absence (Patient 10, 84 weeks, CBD 25.0 mg/kg/day): 1626.6
- Seizure frequency, Absence (Patient 10, 96 weeks, CBD 25.0 mg/kg/day): 1678.3
- Seizure frequency, Absence (Patient 10, 120 weeks, CBD 25.0 mg/kg/day): 1644.5
- Seizure frequency, Absence (Patient 10, 132 weeks, CBD 25.0 mg/kg/day): 1370.8
- reduction in absence seizures over the treatment period (Patient 10, treated for 132 weeks, vs baseline): 54.3%
- time of CBD treatment after which patient became seizure free of tonic seizures (patient #2): 36 weeks
- time of CBD treatment after which patient became seizure free of tonic seizures (patient #4): 12 weeks
- seizure freedom in patients with tonic seizures (in words) (patients 2 and 4, between 12 and 36 weeks of treatment): completely seizure free
- effect on seizures / seizure frequency (in words) (tonic, tonic-clonic, atonic, myoclonic, absence, focal seizures with impairment and spasms, HIE or anoxia at birth): effective in reducing the frequency; also recorded: significantly reduce the number of seizures; also recorded: significant reduction
